Results as given in the NIST ThermoML archive (doi:10.1021/je0505366).
Numbers after ± are expanded uncertainties.

Columns and labels:
[1] = refractive index (Na D-line) (dimensionless); details: 101.33 kPa, Liquid, Standard Abbe refractometry
[2] = Liquid; for mass density: 101.33 kPa; for vapor or sublimation pressure: 383.15 K, Ebulliometric method (Recirculating still)

With `Nc1ccccc1` [aniline] the refractive index ([1]; 293.15 K) was 1.5862 ± 0.0007, the mass density ([2]; 293.15 K) was 1021.72 ± 0.18 kg/m3 and the “vapor or sublimation pressure” value [2] was 9.21 ± 0.02 kPa.
Work on `NC1CCCCC1` [cyclohexylamine] yielded a refractive index ([1]; 288.15 K) of 1.4624 ± 0.0007 and a mass density ([2]; 303.15 K) of 858.2 ± 0.23 kg/m3.
For `CCCCCCCC` [octane], the refractive index ([1]; 298.15 K) was 1.3946 ± 0.0007, the mass density ([2]; 298.15 K) was 698.49 ± 0.39 kg/m3 and the “vapor or sublimation pressure” value [2] was 64.09 ± 0.07 kPa.
Molecule `Cc1ccccc1` [toluene] has a refractive index ([1]; 293.15 K) of 1.496 ± 0.0007 and a mass density ([2]; 293.15 K) of 866.78 ± 0.23 kg/m3.
For `O` [water], the refractive index ([1]; 293.15 K) was 1.3336 ± 0.0007.
